The values below come from article PMC9767854, “Discovery and mechanism studies of a novel ATG4B inhibitor Ebselen by drug repurposing and its anti-colorectal cancer effects in mice” (Cell & Bioscience, 2022).

The target of one test is T1, ATG4B (Homo sapiens, UniProt Q9Y4P1).
T1 construct: 6xHis; made in house; host or cells: E. coli BL21(DE3)
T1 sequence (Q9Y4P1 1-393): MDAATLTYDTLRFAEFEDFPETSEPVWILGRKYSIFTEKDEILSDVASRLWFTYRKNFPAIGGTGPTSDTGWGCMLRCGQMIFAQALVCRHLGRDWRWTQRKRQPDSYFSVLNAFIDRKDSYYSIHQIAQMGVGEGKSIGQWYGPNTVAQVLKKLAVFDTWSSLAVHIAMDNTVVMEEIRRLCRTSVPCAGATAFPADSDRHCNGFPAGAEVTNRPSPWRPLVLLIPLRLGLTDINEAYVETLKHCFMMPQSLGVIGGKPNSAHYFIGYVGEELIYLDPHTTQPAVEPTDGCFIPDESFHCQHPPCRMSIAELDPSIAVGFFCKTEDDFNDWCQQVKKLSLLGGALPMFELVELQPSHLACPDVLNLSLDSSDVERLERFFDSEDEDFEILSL
The test is described as follows: FRET-based assay for ATG4B activity. It counts as biochemical.

For test [1], the target named is T2, ATG4B (cell lysates from ATG4B-Flag 293 T) (Homo sapiens, UniProt Q9Y4P1).
T2 construct: expressed in transfected cells; host or cells: 293T (ATG4B-Flag 293 T line)
The test is described as follows: In vitro cleavage assay of LC3B-GST with ATG4B-overexpressing cell lysates. It counts as biochemical. Conditions: compounds 10 μM, 30 min at 37 °C.
Protocol: A, B Cell lysates (1.5 μg) from ATG4B-Flag 293 T were incubated with different compounds (10 μM) for 30 min at 37 °C, then recombinant LC3B-GST (3 μg) were added up to 20 μl and inhibitions were detected by SDS-PAGE and CBB staining (A). B Statistical chart of gel results of three repeated experiments. Ebselen was abbreviated as Ebs, the same below. CON as control without lysate, NC as negative control without compound.

Test [2] deals with T3, endogenous ATG4B in HeLa cells (Homo sapiens, UniProt Q9Y4P1).
T3 construct: endogenous in cells; host or cells: HeLa
The test is described as follows: Endogenous ATG4B activity in cells by FRET assay. Format: cell-based. An excerpt: Supplementary file 13578_2022_944_MOESM1_ESM.docx: Additional file 1: Figure S1. Screening of ATG4B inhibitors based on the approved drugs library by FRET assay. […] (D) Candidate compound number and name correspondence table, and IC50 calculation of nine commercially available compounds for ATG4B by FRET assay. Figure S2. […] Figure S3. […] Figure S5. […] Figure S6.

The test system of another test is HCT116 cells. The test is described as follows: Long-lived protein degradation assay. The note with it: 10 μM Ebselen, 2 μM Torin 1, 12 h. It counts as cell-based. The method, then:
Long-lived protein degradation assay was performed referring to the reported protocol. In brief, HCT116 cells were seeded in 6-well plates and cultured overnight, and then incubated with L-methionine-free DMEM (Thermo Fisher Scientific, 21,013,024) supplemented with 10% dialyzed FBS (Biological Industries, 2,148,391) for 30 min at 37℃ for depleting the methionine reserve. Subsequently, the cells were incubated with medium containing 50 μM AHA (MCE, HY-140346A) for 18 h to label AHA on proteins. After 2 h incubation with 10 × L-methionine to chase out the short-lived AHA-labeled proteins, cells were treated with compounds as indicated in regular medium for 12 h. Then the cells were harvested, fixed and permeabilized sequentially until they were incubated in the click reaction master mix (50 μM TAMRA alkyne [AAT Bioquest, AAT-487], 1 mM TCEP [MCE, HY-W011500], 100 μM TBTA [GLPBIO, GC45003], 1 mM CuSO4 [Sangon Biotech, C3008] in PBS) in the dark for 2 h. Finally, cells were washed and suspended in 500 μl PBS and analyzed by flow cytometry (BECKMAN, CytoFLEX S).

The next test concerns HCT116. The test is described as follows: Immunofluorescence of endogenous LC3B dots. Format: cell-based. The note with it: Ebselen 10 μM, CQ 40 μM. The method, then:
Fig. 5 Ebselen suppresses autophagy flux via inhibition of ATG4B. A, B HeLa cells were treated with Torin 1 (2 μM) or CQ (40 μM) and detected by western blot. C, D SW620 cells were transduced with sgCon and sgATG4B lentiviruses, respectively. Then cells were treated with CQ (40 μM) and detected by western blot. E, F HCT116 were treated with Ebselen (5 and 10 μM) or CQ (40 μM) and subjected to western blot. G, H SW620 were treated with Ebselen (10 μM) or CQ (40 μM) and western blotting was carried out to detect the protein levels. I, J Immunofluorescence analysis of endogenous LC3B in HCT116 treated with Ebselen (10 μM) or CQ (40 μM). Dots numbers for LC3B were derived from counting at least 20 cells and 5 fields from three independent replicated experiments. Bar = 10 μm. K HCT116 cells were treated with 2 μM Torin 1 in the presence or absence of 10 μM Ebselen for 12 h, then the level ratio of long-lived proteins was measured by flow cytometry
Immunofluorescence staining was carried out as described before. Respectively, cells seeded on glass-bottom 35-mm dishes (SORFA bio, 201,200) were washed with PBS and fixed for 20 min at room temperature with 4% paraformaldehyde after related administration. Subsequently, dishes were permeabilized with 0.3% Triton X-100 in PBS, and washed to be blocked in goat serum (Boster, AR1009) for 1 h before incubated with primary antibody overnight at 4℃. […]

For test [3], the system named is SW620 cell-based xenografts. The test is described as follows: SW620 subcutaneous xenograft tumor model. It counts as in vivo, BALB/c-nu/nu mice. The method, then: Fig. 7 Ebselen suppresses colorectal cancer tumor growth. A A brief diagram of the animal experiment for subcutaneous xenografted tumor model. 2 × 10^6 (2e^6) SW620 cells were xenografted into BALB/c-nu/nu mice by subcutaneous injection (s.c.). After 10 days, mice were injected intraperitoneally (i.p.) with indicated doses of Ebselen every two days, and monitoring of tumor volume and body weight changes were performed. B–D Representative tumor images and tumor weight at the end time point were captured from SW620 cell-based xenografts. Mean tumor weight ± SEM (C) and mean tumor volume ± SEM (D) were shown. E The inhibitory effect of ATG4 in xenografted tumors was detected by FRET assay. F, I The protein level of autophagy and apoptosis in xenografted tumors were detected by western blot. Representative results were shown and the statistical results of each group were obtained from seven mice. J, K The immunohistochemistry analysis of Ki67 in xenografted tumors (group vehicle and Ebselen 10 mg/kg). Bar = 20 μm. […]
Four- to six-weeks-old BALB/C nu/nu female mice purchased from the Experimental Animal Center of Sun Yat-Sen University, were approved by the Animal Ethics Committee at Sun Yat-sen University and kept in specific-pathogen-free environment. […] Tumor volume was measured by calipers and calculated using the equation: 0.5 × length × width^2. […]

`O=c1c2ccccc2[se]n1-c1ccccc1` [Ebselen]: on ATG4B (Ebselen 0.5 μM, 15-90 min, compared to 2CS), the “inhibition rate against ATG4B WT” value is given as “higher inhibition rate”. Moreover, the IC50 at ATG4B (recombinant ATG4B 0.75 μg/ml, 30 min preincubation at 37 °C) was 189 nM. In addition, the “cleavage activity of ATG4B on LC3B-GST in cell lysates” value in test [1] is given as “strongly suppressed”. In addition, in test [2], the “inhibition of endogenous ATG4B in cells” value is “inhibited in a time- and dose-dependent manner”. For the same compound, in the test with HCT116 cells, the “autophagic long-lived protein degradation induced by Torin 1” value is on record as “significantly inhibited”. Besides, the “number of endogenous LC3B dots” value in the test on HCT116 is on record as “decreased”. The anti-tumor effect entry in test [3] (5 mg/kg i.p. every two days) was “obvious anti-tumor effect”. Also, the growth of tumors result in test [3] (5, 10, 20 mg/kg i.p. every two days, compared with vehicle) is reported as “significantly suppress the growth of tumors”.
